A short description of the assay: In vitro intrinsic binding affinity at platelet activating factor receptor using rabbit platelet membranes.

SMILES strings stand for the structures.

Broadly, the Ki is the equilibrium dissociation constant of an inhibitor or competing ligand from its target. Low readings indicate a stronger hold on the target, high ones a looser hold on the target. `COc1cc(C(C)CCCc2ccc(F)cc2)cc2c1C1=C(CCN(Cc3ccccn3)C1)C(C)(C)O2` (stereo unspecified) gave a Ki of 4.21 µM.

As to `CC1CSC2=C1c1c(O)cc(C(C)CCCc3ccc(F)cc3)cc1OC2(C)C` (stereo unspecified), the affinity corresponds to a Ki of 43.8 µM.

As to `CNC(=O)CN(C)CC1=CC(C)(C)Oc2cc(C(C)CCCc3ccc(F)cc3)cc(O)c21` (stereo unspecified), the Ki turned out to be 1.57 µM.

`COc1cc(C(C)CCCc2ccc(F)cc2)cc2c1C1=C(CCN(CCCCCC(=O)O)C1)C(C)(C)O2` (stereo unspecified): the affinity, expressed as Ki, was 25 µM.

`COc1cc(C(C)CCCc2ccc(F)cc2)cc2c1C1=C(CCN(CCCCC(=O)O)C1)C(C)(C)O2` (stereo unspecified) showed a Ki of 5.5 µM.

On to `COc1cc(C(C)CCCc2ccc(F)cc2)cc2c1C1=C(CCN(CCC(=O)O)C1)C(C)(C)O2` (stereo unspecified), for which the Ki amounted to 4.4 µM.

`C#CCN1CCC2=C(C1)c1c(O)cc(C(C)CCCc3ccc(F)cc3)cc1OC2(C)C` (stereo unspecified) showed a Ki of 3.25 µM.

In turn, `CNC(=O)CN1CCC(C(C)(C)O)=C(c2c(O)cc(C(C)CCCc3ccc(F)cc3)cc2O)C1` (stereo unspecified) came in with a Ki of 23.5 µM.

On to `CCCCCC(C)C(C)c1cc(O)c2c(c1)OC(C)(C)C1=C2CN(CC(=O)NC)CC1` (stereo unspecified), for which the Ki amounted to 3.68 µM.

Turning to `CNC(=O)CN1CCC2=C(C1)c1c(OCC(=O)O)cc(C(C)CCCc3ccc(F)cc3)cc1OC2(C)C` (stereo unspecified), the Ki stood at 0.925 µM.

Take `CNC(=O)CN1CCC2=C(C1)c1c(OC)cc(C(C)CCCc3ccc(F)cc3)cc1OC2(C)C` (stereo unspecified): the Ki worked out at 0.142 µM.

Compound `CC(CCCc1ccc(F)cc1)c1cc(O)c2c(c1)OC(C)(C)C1=C2CN(CC(=O)N(C)C)CC1` (stereo unspecified) came in with a Ki of 15.8 µM. This Ki lies about 110-fold higher than the previous one.

`CNC(=O)CN1CCC2=C(C1)c1c(O)cc(C(C)CCCc3ccc(F)cc3)cc1OC2(C)C` (stereo unspecified) gave a Ki of 0.331 µM.

With `CC(CCCc1ccc(F)cc1)c1cc(O)c2c(c1)OC(C)(C)C1=C2CN(C(=O)CO)CC1` (stereo unspecified), the Ki was 20.5 µM.

In turn, `CNC(=O)CN1CCC2=C(C1)c1c(O)cc(C(C)C)cc1OC2(C)C` had a Ki of 9 µM.

Turning to `CNC(=O)CCCN1CCC2=C(C1)c1c(O)cc(C(C)CCCc3ccc(F)cc3)cc1OC2(C)C` (stereo unspecified), the Ki is 20.7 µM.

The record behind these values is BindingDB's records for doi:10.1021/jm00089a016 (Abbott Laboratories, 1992).
